Results reported in patent US20220257595A1, “MACITENTAN FOR USE IN TREATING PORTOPULMONARY HYPERTENSION” (ACTELION PHARMACEUTICALS LTD, priority 2019, published 2022).
Entries after “also recorded” stand apart in the source; their conditions may differ.

Key:
Assay type in all cases: in vivo, human
[1] = PORTICO PK substudy: steady-state plasma macitentan and ACT-132577
Protocol: It was planned to enroll at least 20 patients who were on steady-state treatment with macitentan (i.e., at least 4 weeks) into the PK substudy. The substudy was conducted in consenting patients from all centers across all regions who agreed to participate. The substudy consisted of the following periods:
PK assessments period: PK assessments were to be performed after OL study treatment had been taken for at least 4 weeks. The substudy comprised two visits (Day 1: Enrollment and Day 2: Conclusion). See, FIG. 2. Subject eligibility was first checked on Day 1 of the PK substudy prior to the start of assessments.
PK substudy: On Day 1 of the PK substudy, the study treatment was required to be taken directly after the pre-dose blood sample. On Day 2 of the PK substudy, study treatment was required to be taken after the collection of the last PK blood sample (24 hours post Day 1 dose).
F3. Pharmacokinetic Endpoints for Macitentan and its Active Metabolite ACT-132577 • The area under the plasma concentration-time curve during one dosing interval (AUCt). • Maximum plasma concentration (Cmax) during a dosing interval. • The time to reach maximum plasma concentration (tmax) during a dosing interval.
(i) Timing for sampling: For the PK assessment, blood samples were drawn at the following time points: • PK substudy Day 1: Immediately before study treatment administration in the morning (pre-dose) and 1 h, 3 h, 5 h, 6 h, 7 h, 8 h, 9 h, 10 h, 12 h, and 14 h post-dose. • PK substudy Day 2: 24 h post-dose.
(iii) Bioanalysis: A validated liquid chromatography coupled to mass spectrometry method was used for determining the concentrations of macitentan and its metabolite ACT-132577 in plasma. The limit of quantification (LOQ) for both analytes was 1 ng/mL.
The measured individual plasma concentrations of macitentan and its metabolite ACT-132577 were used to directly obtain Cmax and tmax. AUCT was calculated according to the linear trapezoidal rule using the measured concentration-time values above the LOQ during one dosing interval. The PK variables were calculated on the basis of the real (actual) blood sampling time points. For mean value calculations, all values below the LOQ (below the limit of quantification (BLQ) values) were set to zero if ≤50% of the values at a given time point were BLQ. If >50% of the values at a given time point were BLQ, no mean value was calculated. Mean concentration-time profiles were generated using these criteria. The individual and mean plasma concentration-time profiles were plotted on a linear scale. The derived PK variables for macitentan and ACT-132577 (AUCT, Cmax, tmax) are listed by patient. Plasma concentrations per time point were summarized using arithmetic mean, minimum, median, maximum, standard deviation (SD), standard error (SE), and two-sided 95% confidence interval of the mean. […] (*For tmax the geometric mean and its 95% confidence interval were not calculated).

[2] = system: patients with PoPH; experiment: Post-hoc: liver transplant perioperative risk classification (mPAP categories); details: for LT perioperative risk classification: Week 12 High risk (mPAP => 45 mm Hg): 10 mg, N = 43
Protocol: (§1) Post-Hoc, Exploratory Criteria: • Proportion of patients with NT-proBNP decrease from above 300 ng/L to below this threshold • Odds ratio for improvement to a more favorable liver transplant perioperative risk category • Odds ratio for becoming eligible for the MELD exception • Odds ratio for improvement to a more favorable waitlist mortality risk category
(§2) Risk categories related to liver transplant (transplant perioperative risk classification, MELD exception eligibility and waitlist mortality risk) were analyzed descriptively by treatment group using shift tables from baseline to Week 12 with categories as defined in Example 1.
(§3) LT perioperative risk classification, MELD exception eligibility, and waitlist mortality analyses were performed after the database lock and SDTMs delivery for the Double-Blind period. Number (%) of patients in following categories were summarized and presented in shift tables. The estimated odds ratio for risk improvement and corresponding 95% confidence intervals were obtained from an exact logistic regression (macitentan vs placebo) with factors for treatment and risk category at baseline.
The presence of moderate to severe pulmonary hypertension in patients with liver disease increases the risk of graft dysfunction and cardiopulmonary-related mortality after orthotopic liver transplant. According to the International Liver Transplant Society (ILTS) Practice Guidelines, liver transplant is conditional to appropriate hemodynamics due to the risk of cardiopulmonary-related mortality after liver transplant: • mPAP ≥45 mmHg is an absolute contraindication to liver transplant (high risk) as it is associated with 100% cardiopulmonary mortality • mPAP ≥35 mmHg and <45 mmHg, with increased PVR is associated with increased mortality (intermediate risk) of about 50%
mPAP <35 mmHg is associated with a low risk for liver transplant • LT perioperative risk classification

[3] = system: patients with PoPH; experiment: Post-hoc: liver transplant waitlist mortality risk (PVR categories)
Protocol: as §1, §2, §3
The outcomes of PoPH patients who were granted MELD exception in the US were analyzed. […] Age, initial MELD score and initial PVR were significant predictors of waitlist mortality, although their accuracy was limited. The results were illustrated by defining 4 groups depending on their PVR and MELD score: high PVR (PVR>450 dyn·sec·cm^−5), low PVR (PVR ≤450 dyn·sec·cm^−5), high MELD (MELD >12) or low MELD (MELD ≤12).

[4] = Week 12, exact logistic regression
[5] = after 12 weeks, FAS no imputation, 18 patients

Structure (SMILES): CCCNS(=O)(=O)Nc1ncnc(OCCOc2ncc(Br)cn2)c1-c1ccc(Br)cc1 [macitentan, N-[5-(4-Bromophenyl)-6-[2-[(5-bromo-2-pyrimidinyl)oxy]ethoxy]-4-pyrimidinyl]-N′-propylsulfamide]
- Plasma exposure in PoPH patients compared with other forms of PAH / other macitentan studies [1]: consistent between PoPH patients and patients with other forms of PAH; also recorded: comparable between patients with PoPH and other forms of PAH; also recorded: consistent with those in other macitentan studies
- Trough plasma concentration, mean±SD ([1]; OL macitentan 10 mg o.d. at least 4 weeks, PoPH patients, n=8): 213.1 ± 86.4 ng/mL
- Cmax ([1]; human, plasma, oral, macitentan 10 mg o.d., PoPH patients, PKS 10 patients, read-out: Cmax, geometric mean (95% confidence interval)): 369 ng/mL
- Tmax ([1]; human, plasma, oral, macitentan 10 mg o.d., PoPH patients, PKS 10 patients, read-out: tmax, median (range)): 6.5 h
- AUC(0-t) ([1]; human, plasma, oral, one dosing interval, macitentan 10 mg o.d., PoPH patients, read-out: AUCT, geometric mean (95% confidence interval)): 6660 ng·h/mL
- LT perioperative risk classification: Week 12 High risk (mPAP => 45 mm Hg) ([2]; Baseline Intermediate risk (n = 16)): 0 n (%)
- LT perioperative risk classification: Week 12 High risk (mPAP => 45 mm Hg) ([2]; Baseline Low risk (n = 2)): 0 n (%)
- Odds to change to a more favorable LT perioperative risk category, macitentan vs placebo [2, 4]: 3.73 times
- Patients improving to a more favorable LT perioperative risk category [2, 5]: 41.9%
- LT perioperative risk: Between-treatment odds ratio for improvement, OR ([2]; macitentan vs placebo, exact logistic regression, 95% CI 1.175, 13.401, p-value 0.0224): 3.732
- PVR risk categories (waitlist mortality): Week 12 Category 2 (PVR > 450 dyn · sec/cm^5) ([3]; Baseline Category 2 (n = 30), Full analysis set, 10 mg, N = 43): 9 n (%)
- Odds of changing to the low waitlist mortality risk group, macitentan vs placebo [3, 4]: 10.48 times
- Patients moving from waitlist high-risk group (PVR >450 dyn·s·cm^−5) to low-risk group [3, 5]: 41.9%
- PVR risk categories: Between-treatment odds ratio for improvement, OR ([3]; macitentan vs placebo, exact logistic regression, 95% CI 2.381, 66.810, p-value 0.0005): 10.479
